# Data: patent US20240376108A1, “SALT AND CRYSTAL FORM OF PYRAZOLE-CONTAINING POLYCYCLIC DERIVATIVE, AND PREPARATION METHOD THEREFOR AND USE THEREOF” (Shanghai Hansoh Biomedical Co., Ltd., priority 2021, published 2024)
# Assays:
# [1] = Screening of the salt form and of the crystal form of the salt; assay type: physicochemical; conditions: 40 to 50° C., stirred overnight
# Method: 2.1 Screening of the salt form of the compound
# 2.1.1 Experimental objective: To screen the salt form of the compound.
# Salt forming by solventing out or suspension: 10 mg of compound 2-(2-cyano-5-oxo-8-(trifluoromethyl)pyrazolo[1,5-a]pyrido[3,2-e]pyrimidin-4(5H)-yl)-N-(5-fluoropyridin-2-yl)acetamide was weighed, to which 200 μL to 400 μL of solvent was added. The solution was stirred at 40 to 50° C., to which different acids were added respectively. The solution was stirred overnight, cooled to room temperature, filtered, and dried to obtain the salt of the compound.
# 3.1 Study on the crystal form of the salt of 2-(2-cyano-5-oxo-8-(trifluoromethyl)pyrazolo[1,5-a]pyrido[3,2-e]pyrimidin-4(5H)-yl)-N-(5-fluoropyridin-2-yl)acetamide
# 3.1.1 Experimental objective: To screen the salt of compound 2-(2-cyano-5-oxo-8-(trifluoromethyl)pyrazolo[1,5-a]pyrido[3,2-e]pyrimidin-4(5H)-yl)-N-(5-fluoropyridin-2-yl)acetamide that can form a crystal form.
# 2) Operating procedures: Salt forming by solventing out or suspension: 10 mg of the compound was weighed, to which 200 μL to 400 μL of solvent was added. The solution was stirred at 40 to 50° C., to which different acids were added respectively. The solution was stirred overnight, cooled to room temperature, filtered, and dried to obtain the salt of the compound.
# [2] = Hygroscopicity experiment (DVS); assay type: physicochemical; conditions: 25° C.
# Source text: 7.1 Hygroscopicity experiment of crystal forms of different salts of compound 2-(2-cyano-5-oxo-8-(trifluoromethyl)pyrazolo[1,5-a]pyrido[3,2-e]pyrimidin-4(5H)-yl)-N-(5-fluoropyridin-2-yl)acetamide
# 7.1.1 Experimental objective: To investigate the hygroscopicity of crystal forms of different salts of compound 2-(2-cyano-5-oxo-8-(trifluoromethyl)pyrazolo[1,5-a]pyrido[3,2-e]pyrimidin-4(5H)-yl)-N-(5-fluoropyridin-2-yl)acetamide at different relative humidity, so as to provide a basis for storage.
# 7.1.2 Experimental protocol: Crystal forms of different salts of the compound were placed in saturated water vapor with different relative humidity to achieve dynamic equilibrium between the compound and water vapor, and the percentage of hygroscopic weight gain of the compound after equilibrium was calculated.
# [3] = Pharmacokinetic assay of the salt forms in rats (10 mg/kg); assay type: in vivo; conditions: SD rats
# Method: 2.3 Pharmacokinetic assay of the methanesulfonate in rats
# 2.3.1. Study objective: SD rats were used as test animals. The pharmacokinetic behavior of various salt forms of 2-(2-cyano-5-oxo-8-(trifluoromethyl)pyrazolo[1,5-a]pyrido[3,2-e]pyrimidin-4(5H)-yl)-N-(5-fluoropyridin-2-yl)acetamide was studied in rat body (plasma) by orally administration at a dose of 10 mg/kg.
# 2.3.2.4 Administration: After an overnight fast, male SD rats (3 rats per group) were administered p.o. with the test compound at a dose of 10 mg/kg and a volume of 10 mL/kg.
# 2.3.2.5 Sample collection: 0.2 mL of blood was taken from the jugular vein of the rat before administration and at 0, 0.5, 1, 2, 4, 6, 8 and 24 hours after administration. The samples were stored in EDTA-K2 tubes, and centrifuged for 6 minutes at 4° C., 6000 rpm to separate the plasma. The plasma samples were stored at −80° C.
# 1) 160 μL of acetonitrile was added to 40 μL of the plasma sample for precipitation, and then the mixture was centrifuged at 3500×g for 5 to 20 minutes.
# 2) After the above process, 100 μL of the supernatant was taken to analyze the concentration of the test compound by LC/MS/MS.
# 2.3.2.7 Liquid chromatography analysis • Liquid chromatography condition: Shimadzu LC-20AD pump • Mass spectrometry condition: AB Sciex API 4000 mass spectrometer • Chromatographic column: phenomenex Gemiu 5 um C18 50×4.6 mm • Mobile phase: Eluent A was 0.1% formic acid in water, and Eluent B was acetonitrile • Flow rate: 0.8 mL/min • Elution time: 0-4.0 minutes, the eluent is as follows:
# The main parameters of pharmacokinetics were calculated by WinNonlin 8.2.
# [4] = solvent Dichloromethane (400 μL)
# [5] = solvent Tetrahydrofuran (200 μL)
# [6] = Cycle 1, target relative humidity 40.0%
# [7] = Cycle 1, target relative humidity 50.0%
# [8] = Cycle 1, target relative humidity 60.0%
# [9] = Cycle 1, target relative humidity 70.0%
# [10] = Cycle 1, target relative humidity 80.0%
# [11] = Cycle 1, target relative humidity 90.0%
# [12] = Cycle 1, target relative humidity 95.0%
# [13] = Cycle 2, target relative humidity 0.0%
# [14] = Cycle 2, target relative humidity 10.0%
# [15] = Cycle 2, target relative humidity 20.0%
# [16] = Cycle 2, target relative humidity 30.0%
# [17] = Cycle 2, target relative humidity 40.0%
structure (smiles),measurement,setting,value
Cl [Hydrochloric acid],"Results (salt forming with acid, 1M in EtOH)",[1]; solvent 2-Butanone (250 μL),Crystal form
same,"Results (salt forming with acid, 1M in EtOH)",[1]; solvent Acetone (400 μL),Crystal form
same,"Results (salt forming with acid, 1M in EtOH)",[1]; [4],Crystal form
same,"Results (salt forming with acid, 1M in EtOH)",[1]; solvent Methanol (400 μL),Crystal form
same,"Results (salt forming with acid, 1M in EtOH)",[1]; [5],Crystal form
"Br.N#Cc1cc2n(CC(=O)Nc3ccc(F)cn3)c(=O)c3ccc(C(F)(F)F)nc3n2n1 [Hydrobromide (crystal form B), 2-(2-cyano-5-oxo-8-(trifluoromethyl)pyrazolo[1,5-a]pyrido[3,2-e]pyrimidin-4(5H)-yl)-N-(5-fluoropyridin-2-yl)acetamide hydrobromide]","% percentage of mass change, Desorption",[2]; [6],4.247%
same,"% percentage of mass change, Sorption",[2]; [6],4.140%
same,"% percentage of mass change, Desorption",[2]; [7],4.359%
same,"% percentage of mass change, Sorption",[2]; [7],4.233%
same,"% percentage of mass change, Desorption",[2]; [8],4.448%
same,"% percentage of mass change, Sorption",[2]; [8],4.321%
same,"% percentage of mass change, Desorption",[2]; [9],4.532%
same,"% percentage of mass change, Sorption",[2]; [9],4.415%
same,"% percentage of mass change, Desorption",[2]; [10],4.627%
same,"% percentage of mass change, Sorption",[2]; [10],4.529%
same,"% percentage of mass change, Desorption",[2]; [11],4.787%
same,"% percentage of mass change, Sorption",[2]; [11],4.715%
same,"% percentage of mass change, Desorption",[2]; [12],4.947%
same,"% percentage of mass change, Sorption",[2]; [12],4.947%
same,"% percentage of mass change, Desorption",[2]; [13],−0.019%
same,"% percentage of mass change, Sorption",[2]; [13],−0.007%
same,"% percentage of mass change, Desorption",[2]; [14],0.124%
same,"% percentage of mass change, Sorption",[2]; [14],0.070%
same,"% percentage of mass change, Desorption",[2]; [15],0.220%
same,"% percentage of mass change, Sorption",[2]; [15],0.153%
same,"% percentage of mass change, Desorption",[2]; [16],3.962%
same,"% percentage of mass change, Sorption",[2]; [16],3.900%
same,"% percentage of mass change, Desorption",[2]; [17],4.112%
same,"% percentage of mass change, Sorption",[2]; [17],4.030%
same,exposure AUC and maximum plasma concentration Cmax compared with the free base,[3]; 10 mg/kg,superior
same,AUC(0-t),"[3]; male, rat, po, p.o. 10 mg/kg, plasma, vehicle 0.5% HPMC, read-out: Area under curve AUC0-t",16800 ng·h/mL
same,MRT inf,"[3]; male, rat, po, p.o. 10 mg/kg, plasma, vehicle 0.5% HPMC, read-out: Average residence time MRT0-∞",4.4 h
same,half-life,"[3]; male, rat, po, p.o. 10 mg/kg, plasma, vehicle 0.5% HPMC, read-out: Half life t1/2 (converted)",2.6 h
same,Tmax,"[3]; male, rat, po, p.o. 10 mg/kg, plasma, vehicle 0.5% HPMC, read-out: Peak time tmax",1 h
same,Cmax,"[3]; male, rat, po, p.o. 10 mg/kg, plasma, vehicle 0.5% HPMC, read-out: Plasma concentration Cmax",2470 ng/mL
O=S(=O)(O)O [Sulfuric acid],"Results (salt forming with acid, 1M in EtOH)",[1]; solvent 2-Butanone (250 μL),Crystal form
same,"Results (salt forming with acid, 1M in EtOH)",[1]; solvent Acetone (400 μL),Crystal form
same,"Results (salt forming with acid, 1M in EtOH)",[1]; [4],Crystal form
same,"Results (salt forming with acid, 1M in EtOH)",[1]; solvent Methanol (400 μL),Crystal form
same,"Results (salt forming with acid, 1M in EtOH)",[1]; [5],Crystal form
CS(=O)(=O)O [Methanesulfonic acid],"Results (salt forming with acid, 1M in EtOH)",[1]; solvent 2-Butanone (250 μL),Crystal form
same,"Results (salt forming with acid, 1M in EtOH)",[1]; solvent Acetone (400 μL),Crystal form
same,"Results (salt forming with acid, 1M in EtOH)",[1]; [4],Crystal form
same,"Results (salt forming with acid, 1M in EtOH)",[1]; solvent Methanol (400 μL),Crystal form
same,"Results (salt forming with acid, 1M in EtOH)",[1]; [5],Crystal form
Br [Hydrobromic acid],"Results (salt forming with acid, 1M in EtOH)",[1]; solvent 2-Butanone (250 μL),Crystal form
same,"Results (salt forming with acid, 1M in EtOH)",[1]; solvent Acetone (400 μL),Crystal form
same,"Results (salt forming with acid, 1M in EtOH)",[1]; [4],Crystal form
same,"Results (salt forming with acid, 1M in EtOH)",[1]; solvent Methanol (400 μL),Crystal form
same,"Results (salt forming with acid, 1M in EtOH)",[1]; [5],Crystal form
CCS(=O)(=O)O [Ethanesulfonic acid],"Results (salt forming with acid, 1M in EtOH)",[1]; solvent 2-Butanone (250 μL),Crystal form
same,"Results (salt forming with acid, 1M in EtOH)",[1]; solvent Acetone (400 μL),Crystal form
same,"Results (salt forming with acid, 1M in EtOH)",[1]; [4],Crystal form
same,"Results (salt forming with acid, 1M in EtOH)",[1]; solvent Methanol (400 μL),Crystal form
same,"Results (salt forming with acid, 1M in EtOH)",[1]; [5],Crystal form
